Experimental data taken from US9763996B2, “Polymyxin derivative and uses thereof” (Northern Antibiotics Ltd., priority 2015, dated 2017).
“Also recorded” adds a separate entry of the source. Where two headings read alike, the source gives them in different places. Where a SMILES comes first, the peptide text is derived from it. Bridges are numbered along the chain shown (N, C = ends). [ ]: non-standard residue; d: D form. The star is where a group is joined. Octanoyl = CCCCCCCC(=O)*; Dab = NCC[C@H](N)C(=O)O; Abu = CC[C@H](N)C(=O)O

Assays:
[1] = system: P. aeruginosa; test: Synergy studies with rifampin; type: cell-based, Pseudomonas aeruginosa; conditions: against P. aeruginosa
Method: Synergy studies were performed by using polymyxin derivatives in combination with rifampin, a model compound for such antibacterial agents that the intact outer membrane of Gram-negative bacteria acts as a permeability barrier.

[2] = 7-day IV infusion toxicity (nephrotoxicity) study in cynomolgus monkeys; conditions: for unscheduled necropsy / euthanized due to severe nephrotoxic effects: 3 animals per group
Method: In vivo toxicity and toxicokinetic studies were performed by using cynomolgus monkeys. The laboratory that performed the animal studies is accredited by the Association for Assessment and Accreditation of Laboratory Animal Care (AAALAC), has an Animal Welfare Assurance issued by the Office of Laboratory Animal Welfare (OLAW), is registered with the United States Department of Agriculture (USDA), and has an Institutional Animal Care and Use Committee (IACUC) responsible for compliance with applicable laws and regulations concerning the humane care and use of laboratory animals.
Naïve female cynomolgus monkeys were acclimatized to study room for 28 days during which each animal was implanted with a permanent indwelling femoral catheter to permit continuous intravenous infusions. The animals were allowed surgical recovery period of at least 2 weeks before initiating dosing.
Polymyxin B sulfate was from Sigma-Aldrich (catalogue number P0972, lot number BCBF8382V). On each day of use, appropriate quantities of NAB739, NAB815 or polymyxin B were weighed and dissolved in appropriate volumes of sterile saline to prepare a stock solution for each test article and positive control. A correction factor was used in the stock solution preparation to account for both the purity and sulfate content in each test article. Accordingly, the dose (such as 36 mg/kg/d) refers to the dose of the pure peptide as its free base form, not as its sulfate salt.
The doses were the following: polymyxin B 18 mg/kg/d (Group 1), polymyxin B 24 mg/kg/d (Group 2), NAB739 24 mg/kg/d (Group 3), NAB739 36 mg/kg/d (Group 4), NAB815 24 mg/kg/d (Group 5), NAB815 36 mg/kg/d (Group 6). Three animals were included in each study groups.
For seven days, the animals were dosed by intravenous (IV) infusion three times daily (TID) at a dose volume of 10 mL/kg for 1 hour (±10 minutes), 8±0.5 hours apart. The day of initial dose administration was designated study Day 1, with subsequent days consecutively numbered. Days prior to the initial dose administration were consecutively numbered with the final day of acclimation referenced as Day −1.
The following parameters were evaluated at designed intervals: clinical observations, body weights, clinical pathology (hematology, coagulation, serum chemistry, urinalysis including urine sediments and urine chemistry), toxicokinetics (plasma and urine) and anatomic pathology (kidney). In cases of animals sacrificed on an unscheduled basis, samples were taken on the day of the sacrifice.
On the day of necropsy, animals were sedated with ketamine, weighed, and anesthetized with an intravenous injection of a commercial pentobarbital and phenytoin solution, followed by exsanguinations.
At necropsy, gross observations and organ weights were recorded, and specific tissues were collected. Histopathology was conducted on sections of kidney stained with hematoxylin and eosin (H&E).
The figures also show Urine N-acetyl-β-D-glucosaminidase/urine creatinine ratio (U-NAG/Crea; FIG. 3) and Urine Gamma Glutamyltransferase/urine creatinine ratio (U-GGT/Crea; FIG. 4), both urine biomarkers for kidney injury, in those animals. S-Crea and U-Crea were measured by using an Olympus Analyzer (OA) and the modified Jaffe method, S-BUN by using OA and urease/L-glutamate dehydrogenase. U-NAG was measured by using OA/enzymatic, and U-GGT by using OA and glutamyl-carboxy-p-nitroanilide IFCC.
The presence of the following nephro-pathological parameters was recorded in each animal: tubular basophilia (re-generation), tubular degeneration/necrosis, infiltration (by mononuclear and/or mixed inflammatory cells), tubular dilatation, and tubular casts.

[3] = system: A. baumannii JMI 48125
[4] = system: E. coli JMI 109; conditions: alone; E. coli JMI 109 (polymyxin-nonsusceptible)
[5] = system: P. aeruginosa ATCC 27853; test: MIC assay (CLSI broth microdilution; checkerboard with rifampin); conditions: P. aeruginosa ATCC 27853
[6] = in combination with rifampin 0.25 μg/mL

Question: Which results are given for CCCCCCCC(=O)N[C@@H](CCN)C(=O)N[C@H](C(=O)N[C@@H](C(=O)N[C@H]1CCNC(=O)[C@H]([C@@H](C)O)NC(=O)[C@H](CCN)NC(=O)[C@H](CC)NC(=O)[C@H](CC(C)C)NC(=O)[C@@H](Cc2ccccc2)NC(=O)[C@H](CCN)NC1=O)[C@H](C)O)[C@@H](C)O [NAB815, octanoyl-αDab-Thr-DThr-[cyclo-α,γDab-αDab-DPhe-Leu-Abu-αDab-Thr]] (Octanoyl-[Dab]T[dT][Dab][Dab][dF]L[Abu][Dab]T; lactam 4-C)?
Answer: synergistic activity with rifampin [1]: lacked any notable synergistic activity with rifampin; kidney injury markers (S-BUN, S-Crea, U-NAG/Crea, U-GGT/Crea) ([2]; 24 mg/kg/d IV TID 7 days): None of the parameters was elevated; kidney injury markers (S-BUN, S-Crea, U-NAG/Crea, U-GGT/Crea) ([2]; 36 mg/kg/d IV TID 7 days): only minor if any elevations in the four parameters; unscheduled necropsy / euthanized due to severe nephrotoxic effects ([2]; 36 mg/kg/d IV TID 7 days): underwent no prescheduled necropsy; kidney histopathology findings (grade of nephro-pathological parameters) ([2]; 36 mg/kg/d IV TID, H&E kidney sections, per animal(s)): moderate findings, both in one parameter only; also recorded: no other than minimal or mild findings; also recorded: less severe nephropathic alterations with NAB815

Question: For Polymyxin B, which “unscheduled necropsy / euthanized due to severe nephrotoxic effects” value ([2]; 18 mg/kg/d IV TID 7 days) is on record?
Answer: Its value is “all the three animals receiving polymyxin B at 18 mg/kg/d had to be euthanized; also recorded: on Day 4 for one animal receiving 18 mg/kg/d; also recorded: on Day 5 for two animals receiving 18 mg/kg/d”.

Question: What about the “unscheduled necropsy / euthanized due to severe nephrotoxic effects” value ([2]; 24 mg/kg/d IV TID 7 days) of the same compound?
Answer: The value was “Two animals receiving polymyxin B at 24 mg/kg/d; also recorded: for two animals receiving 24 mg/kg/d”.

Question: And the “S-BUN, S-Crea and U-GGT/Crea” value ([2]; 18 and 24 mg/kg/d IV TID, all the six animals)?
Answer: The value was “remarkably increased”.

Question: What about the U-NAG/Crea ([2]; 18 and 24 mg/kg/d IV TID, six animals) of the same compound?
Answer: The U-NAG/Crea was “remarkably increased in five of the animals”.

Question: What about the MIC ([3]; alone) of the same compound?
Answer: Its MIC is 2 µg/mL.

Question: And the MIC [3, 6]?
Answer: The MIC was 1 µg/mL.

Question: What about the MIC [4] of the same compound?
Answer: Its MIC is 4 to 8 µg/mL.

Question: And the MIC ([5]; alone)?
Answer: The MIC was 2 µg/mL.

Question: What about the MIC [5, 6] of the same compound?
Answer: The MIC was 1 µg/mL.
